Each structure is given as a SMILES string. Bounds are passed on as bounds.

The term IC50 denotes the concentration at which inhibition is half-maximal. The low end stands for greater potency in that assay, the high end for weaker potency in that assay. By melting point is commonly meant the temperature of the solid-liquid transition.

Data set [1] deals with T1, rat mGluR1a receptor (Rattus norvegicus, UniProt P23385).
T1 construct: expressed in transfected cells; host or cells: HEK 293 cells, transient transfection; membrane preparation
T1 sequence (P23385 19-1199): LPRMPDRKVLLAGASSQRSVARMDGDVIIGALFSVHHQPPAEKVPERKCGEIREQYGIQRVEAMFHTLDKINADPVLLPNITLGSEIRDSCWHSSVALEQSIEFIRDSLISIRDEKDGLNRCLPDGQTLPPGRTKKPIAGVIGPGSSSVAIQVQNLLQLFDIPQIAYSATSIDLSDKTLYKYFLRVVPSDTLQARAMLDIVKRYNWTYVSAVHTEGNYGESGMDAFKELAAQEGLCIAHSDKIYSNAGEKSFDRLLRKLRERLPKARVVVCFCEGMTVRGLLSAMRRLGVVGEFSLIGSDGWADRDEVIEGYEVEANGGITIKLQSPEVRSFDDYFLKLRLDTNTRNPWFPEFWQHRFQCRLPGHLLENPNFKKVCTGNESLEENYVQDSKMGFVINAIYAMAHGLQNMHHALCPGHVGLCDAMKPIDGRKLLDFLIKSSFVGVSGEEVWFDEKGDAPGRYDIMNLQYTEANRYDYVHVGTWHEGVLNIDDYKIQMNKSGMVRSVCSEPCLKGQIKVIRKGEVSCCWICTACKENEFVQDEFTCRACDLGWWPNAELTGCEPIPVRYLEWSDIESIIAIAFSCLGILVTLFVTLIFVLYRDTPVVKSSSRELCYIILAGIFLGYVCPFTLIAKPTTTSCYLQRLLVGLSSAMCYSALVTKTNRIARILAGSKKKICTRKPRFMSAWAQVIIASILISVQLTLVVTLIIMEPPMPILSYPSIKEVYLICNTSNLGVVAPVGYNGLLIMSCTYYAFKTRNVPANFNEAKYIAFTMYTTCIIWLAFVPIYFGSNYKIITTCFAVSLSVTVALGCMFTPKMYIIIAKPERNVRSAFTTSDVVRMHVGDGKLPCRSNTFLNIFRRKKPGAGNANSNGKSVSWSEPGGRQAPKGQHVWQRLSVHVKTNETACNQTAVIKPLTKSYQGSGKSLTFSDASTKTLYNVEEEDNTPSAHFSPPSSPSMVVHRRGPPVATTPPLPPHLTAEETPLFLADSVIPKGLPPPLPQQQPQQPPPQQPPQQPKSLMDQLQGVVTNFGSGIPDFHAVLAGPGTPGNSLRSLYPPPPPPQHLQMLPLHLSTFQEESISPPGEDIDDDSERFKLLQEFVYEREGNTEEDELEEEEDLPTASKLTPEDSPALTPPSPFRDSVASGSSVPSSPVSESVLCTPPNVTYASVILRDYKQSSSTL
The data set is described as follows: Binding assay for the characterization of mGluR 1 antagonistic properties (tritiated radioligand displacement). Particulars: membranes of HEK 293 cells transiently transfected with rat mGluR1a; tritiated 1-ethyl-2-methyl-6-oxo-4-(1,1,2-tritritio-1,2,4,5-tetrahydro-benzo[d]azepin-3-yl)-1,6-dihydro-pyrimidine-5-carbonitrile at 3 nM; 1 hour at room temperature. Here is the method:
Binding Assay for the Characterization of mGluR 1 Antagonistic Properties
Binding assay with tritiated 1-ethyl-2-methyl-6-oxo-4-(1,1,2-tritritio-1,2,4,5-tetrahydro-benzo[d]azepin-3-yl)-1,6-dihydro-pyrimidine-5-carbonitrile: HEK 293 cells were transiently transfected with the rat mGluR^1 a receptor. The cells were collected and washed 3 times with PBS. The cell pellets were frozen at −80° C. Membranes were prepared from HEK 293 cells transfected with the rat mGluR^1 a receptor and used in the binding experiments at 10 μg proteins per assay after resuspension in a HEPES NaOH 20 mM, pH=7.4 binding buffer. 1-Ethyl-2-methyl-6-oxo-4-(1,1,2-tritritio-1,2,4,5-tetrahydro-benzo [d]azepin-3-yl)-1,6-dihydro-pyrimidine-5-carbonitrile (S.A 33.4 Ci/mmol) was used at 3 nM final concentration. The incubation with variable concentrations of potential inhibitors was performed for 1 hour at room temperature, the incubate was then filtered onto GF/B glass fiber filter preincubated 1 hour in PEI 0,1% and washed 3 times with 1 ml of cold binding buffer. The radioactivity retained on the unifilter 96 was counted using a Topcount β counter. After correction for non specific binding the data were normalized and the IC50 value calculated using a 4 parameters logistic equation which was fitted to the inhibition curve.
In general terms: Displacement assays read how much labelled ligand stays bound in the presence of the test substance.

In turn, `CCc1nc(N2CCN(c3ccc(F)cc3)CC2)c(C#N)[n+]([O-])c1C` [Example 79-2, 6′-ethyl-4-(4-fluoro-phenyl)-5′-methyl-4′-oxy-3,4,5,6-tetrahydro-2H-[1,2′]bipyrazinyl-3′-carbonitrile] gave an IC50 in data set [1] of 210 nM.

As for `Cc1nc(N2CCC(O)(c3ccccc3)CC2)c([N+](=O)[O-])c(=O)[nH]1` [Example 3, 6-(4-Hydroxy-4-phenyl-piperidin-1-yl)-2-methyl-5-nitro-3H-pyrimidin-4-one], the melting point is > 250 °C (dec.).

Molecule `N#Cc1c(OCC(F)(F)F)nc(NCCO)nc1N1CCC(c2ccccc2)CC1` [Example 60, 2-(2-Hydroxy-ethylamino)-4-(4-phenyl-piperidin-1-yl)-6-(2,2,2-trifluoro-ethoxy)-pyrimidine-5-carbonitrile] gave an IC50 in data set [1] of 36 nM.

`Cc1nc(N2CCN(c3ccc(F)cc3)CC2)c([N+](=O)[O-])c(=O)n1CCO` [Example 8-1, 6-[4-(4-fluoro-phenyl)-piperazin-1-yl]-3-(2-hydroxy-ethyl)-2-methyl-5-nitro-3H-pyrimidin-4-one]: in data set [1], the IC50 turned out to be 42 nM.

`CSc1ccccc1N1CCN(c2nc(NCCO)nc(NCCO)c2C#N)CC1` [Example 25, 2,4-Bis-(2-hydroxy-ethylamino)-6-[4-(2-methylsulfanyl-phenyl)-piperazin-1-yl]-pyrimidine-5-carbonitrile] displayed an IC50 in data set [1] of 350 nM.

In turn, `Cc1nc(OC(C)C)c([N+](=O)[O-])c(N2CCN(c3ccc(F)cc3)CC2)n1` [Example 11, 4-[4-(4-Fluoro-phenyl)-piperazin-1-yl]-6-isopropoxy-2-methyl-5-nitro-pyrimidine] yielded a melting point of 98 to 100 °C.

On to `N#Cc1c(NCCO)nc(NCCO)nc1N1CCC(C#N)(c2ccccc2)CC1` [Example 37, 4-(4-cyano-4-phenyl-piperidin-1-yl)-2,6-bis-(2-hydroxy-ethylamino)-pyrimidine-5-carbonitrile], for which the concentration for half-maximal inhibition (IC50) in data set [1] was determined as 1800 nM.

For `Cc1nc(N2CCN(c3ccc(F)cc3)CC2)c(C#N)nc1-c1ccccc1` [Example 80, 4-(4-Fluoro-phenyl)-6′-methyl-5′-phenyl-3,4,5,6-tetrahydro-2H-[1,2′]bipyrazinyl-3′-carbonitrile], the melting point lay in the range of 117 to 120 °C.

In turn, `N#Cc1c(NCCO)nc(NC2CC2)nc1N1CCN(c2ccccc2)CC1` [Example 47, 2-cyclopropylamino-4-(2-hydroxy-ethylamino)-6-(4-phenyl-piperazin-1-yl)-pyrimidine-5-carbonitrile] returned an IC50 in data set [1] of 33 nM.

Turning to `Cc1nc(OCC(F)(F)F)c([N+](=O)[O-])c(N2CCC(c3ccc(F)cc3)CC2)n1` [Example 13-2, 4-[4-(4-fluoro-phenyl)-piperidin-1-yl]-2-methyl-5-nitro-6-(2,2,2-trifluoro-ethoxy)-pyrimidine], the melting point was 61 to 64 °C.

Molecule `CCc1nc(N2CCN(c3ccccc3)CC2)c(C#N)nc1C` [Example 75-2, 6′-ethyl-5′-methyl-4-phenyl-3,4,5,6-tetrahydro-2H-[1,2′]bipyrazinyl-3′-carbonitrile] registered an IC50 in data set [1] of 23 nM.

`N#Cc1c(Cl)nc(NCCO)nc1N1CCC(c2ccc(F)cc2)CC1` [Example 68, 4-chloro-6-[4-(4-fluoro-phenyl)-piperidin-1-yl]-2-(2-hydroxy-ethylamino)-pyrimidine-5-carbonitrile] came in with a concentration for half-maximal inhibition (IC50) in data set [1] of 140 nM.

In data set [1], `CCn1c(C)nc(N2CCN(c3ccc(F)cc3)CC2)c([N+](=O)[O-])c1=O` [Example 10-1, 3-ethyl-6-[4-(4-fluoro-phenyl)-piperazin-1-yl]-2-methyl-5-nitro-3H-pyrimidin-4-one] registered a half-inhibitory concentration (IC50) of 49 nM.

`CSc1nc(N)nc(N2CCC(c3ccc(F)cc3)CC2)c1C#N` [Example 73, 2-Amino-4-[4-(4-fluoro-phenyl)-piperidin-1-yl]-6-methylsulfanyl-pyrimidine-5-carbonitrile] returned a half-maximal inhibitory concentration (IC50) in data set [1] of 159 nM.

`Cc1nc(OCCO)c([N+](=O)[O-])c(N2CCN(c3ccc(F)cc3)CC2)n1` [Example 8-2, 2-{6-[4-(4-fluoro-phenyl)-piperazin-1-yl]-2-methyl-5-nitro-pyrimidin-4-yloxy}-ethanol] registered a concentration for half-maximal inhibition (IC50) in data set [1] of 58 nM.

As to `N#Cc1c(Cl)nc(NCC2CC2)nc1N1CCN(c2ccccc2)CC1` [Example 63, 4-chloro-2-(cyclopropylmethyl-amino)-6-(4-phenyl-piperazin-1-yl)-pyrimidine-5-carbonitrile], the IC50 in data set [1] amounted to 25 nM.

`N#Cc1c(NCCO)nc(NCCO)nc1N1CC=C(c2ccc(F)cc2)CC1` [Example 35, 4-[4-(4-Fluoro-phenyl)-3,6-dihydro-2H-pyridin-1-yl]-2,6-bis-(2-hydroxy-ethylamino)-pyrimidine-5-carbonitrile] had a half-inhibitory concentration (IC50) in data set [1] of 390 nM.

The molecule `N#Cc1c(NCCO)nc(NCCO)nc1N1CCN(c2ccccc2[N+](=O)[O-])CC1` [Example 29, 2,4-Bis-(2-hydroxy-ethylamino)-6-[4-(2-nitro-phenyl)-piperazin-1-yl]-pyrimidine-5-carbonitrile] came in with an IC50 in data set [1] of 750 nM.

In data set [1], `N#Cc1nnc(NCCO)nc1N1CC=C(c2ccccc2)CC1` [Example 84, 3-(2-Hydroxy-ethylamino)-5-(4-phenyl-3,6-dihydro-2H-pyridin-1-yl)-[1,2,4]triazine-6-carbonitrile] registered a 50% inhibitory concentration (IC50) of 660 nM.

In the case of `CCc1c(C)nc(N2CCN(c3ccc(F)cc3)CC2)c(C#N)[n+]1[O-]` [Example 79-1, 5′-ethyl-4-(4-fluoro-phenyl)-6′-methyl-4′-oxy-3,4,5,6-tetrahydro-2H-[1,2′]bipyrazinyl-3′-carbonitrile], the half-inhibitory concentration (IC50) in data set [1] worked out at 25 nM.

`N#Cc1c(NC2CC2)nc(NC2CC2)nc1N1CCN(c2ccccc2)CC1` [Example 38, 2,4-Bis-cyclopropylamino-6-(4-phenyl-piperazin-1-yl)-pyrimidine-5-carbonitrile]: the 50% inhibitory concentration (IC50) in data set [1] was determined as 64 nM.

On to `N#Cc1c(NCCO)nc(NCc2cccnc2)nc1N1CCC(c2ccccc2)CC1` [Example 54, 4-(2-Hydroxy-ethylamino)-6-(4-phenyl-piperidin-1-yl)-2-[(pyridin-3-ylmethyl)-amino]-pyrimidine-5-carbonitrile], for which the IC50 in data set [1] came to 30 nM.

In turn, `N#Cc1c(NCc2ccccn2)nc(NCc2ccccn2)nc1N1CCN(c2ccccc2)CC1` [Example 40, 4-(4-Phenyl-piperazin-1-yl)-2,6-bis-[(pyridin-2-ylmethyl)-amino]-pyrimidine-5-carbonitrile] showed an IC50 in data set [1] of 1500 nM.

As to `N#Cc1c(NCCO)nc(NCc2cccnc2)nc1N1CCN(c2ccccc2)CC1` [Example 49, 4-(2-Hydroxy-ethylamino)-6-(4-phenyl-piperazin-1-yl)-2-[(pyridin-3-ylmethyl)-amino]-pyrimidine-5-carbonitrile], the concentration for half-maximal inhibition (IC50) in data set [1] worked out at 150 nM.

As for `N#Cc1c(NCCO)nc(NCCO)nc1N1CCC(c2ccc(F)cc2)CC1` [Example 32, 4-[4-(4-Fluoro-phenyl)-piperidin-1-yl]-2,6-bis-(2-hydroxy-ethylamino)-pyrimidine-5-carbonitrile], the IC50 in data set [1] amounted to 700 nM.

In turn, `CSc1nc(N)nc(N2CCN(c3ccc(F)cc3)CC2)c1C#N` [Example 70, 2-amino-4-[4-(4-fluoro-phenyl)-piperazin-1-yl]-6-methylsulfanyl-pyrimidine-5-carbonitrile] registered an IC50 in data set [1] of 210 nM.

As to `N#Cc1c(NCCO)nc(NCCO)nc1N1CCN(c2ccccc2F)CC1` [Example 20, 4-[4-(2-Fluoro-phenyl)-piperazin-1-yl]-2,6-bis-(2-hydroxy-ethylamino)-pyrimidine-5-carbonitrile], in data set [1], the 50% inhibitory concentration (IC50) worked out at 290 nM.
